Results taken from patent publication US20250000843A1, “LIGNAN-INSPIRED COMPOUNDS, METHODS OF MAKING, AND USING THEREOF” (IOWAIBO, INC., priority 2023, published 2025).

Legend:
telomerase [1] = molecular target: T1, telomerase (Homo sapiens, UniProt O14746); assay: Q-TRAP telomerase activity in MCF7 breast cancer cells; assay type: cell-based; parameters: allow the enzymatic addition of telomeric DNA repeats by endogenous telomerase; endogenous in cells
telomerase [2] = molecular target: T1, telomerase; assay: Q-TRAP telomerase activity in PC3 prostate cancer cells; assay type: cell-based; parameters: allow the enzymatic addition of telomeric DNA repeats by endogenous telomerase; endogenous in cells; host or cells: PC3 prostate cancer cells (protein extract of lysed cell pellets); key to Significance of RTA difference vs. control: No: non-significant; Yes (*): p < 0.05; Yes (**): p < 0.01; Yes (***): p < 0.001; Yes (****): p < 0.0001
Protocol: The general mechanism of the Q-TRAP technique involves cellular pellets being lysed for protein extraction which is then subsequently quantified and stored under specific conditions to avoid protein degradation. Protein obtained in the process was used within 72 hours and samples were stored at 4° C. Telomerase protein extracts are then incubated with a specific oligonucleotide substrate to allow the enzymatic addition of telomeric DNA repeats by endogenous telomerase. Following the enzymatic reaction, telomerase extension products are then amplified and quantified by real-time qPCR. In real time PCR, a positive reaction is detected by accumulation of a fluorescent signal. The Ct (cycle threshold) is defined as the number of cycles required for fluorescence to cross the threshold (i.e.: exceeds background levels). […] Data are reported as relative telomerase activity (RTA). […] Telomeric repeat amplification protocol (TRAP) was modified for quantitative real-time PCR (Q-TRAP) and was used to determine the effect of dibenzyl butyl lactone derivative on telomerase activity in prostate cancer cell. The same methods as used in Example 3 were employed. The same abbreviation scheme as presented in Table 7 is used throughout this example as well.

T1 sequence (O14746 whole entry): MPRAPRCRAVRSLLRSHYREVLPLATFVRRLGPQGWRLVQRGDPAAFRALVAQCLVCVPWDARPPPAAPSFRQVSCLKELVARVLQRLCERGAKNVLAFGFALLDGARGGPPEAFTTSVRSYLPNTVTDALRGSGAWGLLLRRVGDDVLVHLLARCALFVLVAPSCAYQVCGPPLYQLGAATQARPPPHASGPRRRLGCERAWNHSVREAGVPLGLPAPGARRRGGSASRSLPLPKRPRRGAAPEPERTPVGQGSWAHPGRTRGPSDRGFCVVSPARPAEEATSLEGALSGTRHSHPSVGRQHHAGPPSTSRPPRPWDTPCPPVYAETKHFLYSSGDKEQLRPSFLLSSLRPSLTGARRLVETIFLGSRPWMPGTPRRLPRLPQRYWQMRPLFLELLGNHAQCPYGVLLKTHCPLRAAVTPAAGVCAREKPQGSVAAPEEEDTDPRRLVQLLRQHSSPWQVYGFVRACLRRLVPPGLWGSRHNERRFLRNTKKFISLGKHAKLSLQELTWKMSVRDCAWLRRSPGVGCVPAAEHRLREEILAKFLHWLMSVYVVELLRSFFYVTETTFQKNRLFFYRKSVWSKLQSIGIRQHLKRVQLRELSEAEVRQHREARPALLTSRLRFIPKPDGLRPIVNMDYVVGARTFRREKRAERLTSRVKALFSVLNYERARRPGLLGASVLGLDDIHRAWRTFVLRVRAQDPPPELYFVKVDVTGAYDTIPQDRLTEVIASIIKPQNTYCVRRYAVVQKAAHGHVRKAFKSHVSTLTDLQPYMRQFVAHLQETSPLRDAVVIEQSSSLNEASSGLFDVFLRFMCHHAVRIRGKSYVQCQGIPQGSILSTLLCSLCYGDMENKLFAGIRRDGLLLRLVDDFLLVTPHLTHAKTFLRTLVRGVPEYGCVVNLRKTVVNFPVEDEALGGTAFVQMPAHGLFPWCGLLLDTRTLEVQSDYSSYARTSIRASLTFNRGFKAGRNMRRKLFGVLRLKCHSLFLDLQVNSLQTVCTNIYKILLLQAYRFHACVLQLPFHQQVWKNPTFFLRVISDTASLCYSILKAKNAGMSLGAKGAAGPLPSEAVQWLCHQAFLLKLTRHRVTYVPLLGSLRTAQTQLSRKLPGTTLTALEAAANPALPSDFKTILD
T1 sequence (O60832 whole entry partner): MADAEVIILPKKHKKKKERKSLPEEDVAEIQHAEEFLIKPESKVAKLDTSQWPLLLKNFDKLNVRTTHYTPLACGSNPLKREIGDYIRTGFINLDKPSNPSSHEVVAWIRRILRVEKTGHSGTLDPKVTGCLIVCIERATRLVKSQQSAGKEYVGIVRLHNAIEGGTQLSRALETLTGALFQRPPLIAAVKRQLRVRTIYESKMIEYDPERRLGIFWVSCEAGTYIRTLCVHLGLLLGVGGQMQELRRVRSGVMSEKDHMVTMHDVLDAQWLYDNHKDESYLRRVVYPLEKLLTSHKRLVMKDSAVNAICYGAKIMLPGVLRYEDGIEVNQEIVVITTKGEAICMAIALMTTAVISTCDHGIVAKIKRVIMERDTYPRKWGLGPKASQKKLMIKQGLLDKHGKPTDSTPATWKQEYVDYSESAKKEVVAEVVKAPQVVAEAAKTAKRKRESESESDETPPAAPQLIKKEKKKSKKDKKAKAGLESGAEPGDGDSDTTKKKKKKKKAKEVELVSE
T1 sequence (Q9NPE3 whole entry partner): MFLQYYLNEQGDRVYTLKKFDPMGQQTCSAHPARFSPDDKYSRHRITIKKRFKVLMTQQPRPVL
T1 sequence (Q9NX24 whole entry partner): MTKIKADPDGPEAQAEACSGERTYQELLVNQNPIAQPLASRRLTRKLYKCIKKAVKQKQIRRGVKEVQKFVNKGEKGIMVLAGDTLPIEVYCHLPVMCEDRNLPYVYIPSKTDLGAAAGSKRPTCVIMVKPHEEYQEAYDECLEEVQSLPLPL
T1 sequence (Q9NY12 whole entry partner): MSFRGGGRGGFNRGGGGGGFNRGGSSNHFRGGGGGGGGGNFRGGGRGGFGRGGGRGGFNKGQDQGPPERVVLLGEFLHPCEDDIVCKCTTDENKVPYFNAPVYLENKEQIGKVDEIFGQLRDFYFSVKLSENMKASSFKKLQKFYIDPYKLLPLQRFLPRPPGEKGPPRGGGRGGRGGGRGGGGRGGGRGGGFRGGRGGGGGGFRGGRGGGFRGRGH
T1 sequence (Q9BUR4 whole entry partner): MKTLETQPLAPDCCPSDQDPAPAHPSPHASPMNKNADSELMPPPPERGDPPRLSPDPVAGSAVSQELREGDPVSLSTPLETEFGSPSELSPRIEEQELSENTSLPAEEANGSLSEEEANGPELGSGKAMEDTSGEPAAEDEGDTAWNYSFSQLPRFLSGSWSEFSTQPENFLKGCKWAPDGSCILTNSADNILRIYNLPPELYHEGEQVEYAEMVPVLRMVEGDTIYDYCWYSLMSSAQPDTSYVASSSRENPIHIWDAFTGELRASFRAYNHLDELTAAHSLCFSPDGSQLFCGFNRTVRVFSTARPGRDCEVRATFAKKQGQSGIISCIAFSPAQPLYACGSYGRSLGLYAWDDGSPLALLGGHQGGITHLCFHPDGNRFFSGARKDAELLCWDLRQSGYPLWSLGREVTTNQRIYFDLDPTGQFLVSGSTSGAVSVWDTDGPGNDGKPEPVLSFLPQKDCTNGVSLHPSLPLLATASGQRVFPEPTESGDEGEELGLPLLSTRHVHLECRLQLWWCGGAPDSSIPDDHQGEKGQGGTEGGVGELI

O=C1OCC(Cc2ccc3c(c2)OCO3)/C1=C\c1cccc(O)c1 (single isomer, unassigned) [Enantiomer B, 3-[(3,4-dimethoxyphenyl)cyclopentyl], 4-[(3-hydroxyphenol)methyl]oxolan-2-one]
Telomerase Activity RTA (%) (telomerase [1]; MCF7, 2.5 μM, 24 Hours): 47.79%
Telomerase Activity RTA (%) (telomerase [1]; MCF7, 2.5 μM, 48 Hours): 23.71%
Telomerase Activity RTA (%) (telomerase [1]; MCF7, 2.5 μM, 72 Hours): 15.49%
Telomerase Activity RTA (%) (telomerase [1]; MCF7, 5 μM, 24 Hours): 48.30%
Telomerase Activity RTA (%) (telomerase [1]; MCF7, 5 μM, 48 Hours): 31.70%
Telomerase Activity RTA (%) (telomerase [1]; MCF7, 5 μM, 72 Hours): 14.68%
Telomerase Activity RTA (%) (telomerase [1]; MCF7, 10 μM, 24 Hours): 59.90%
Telomerase Activity RTA (%) (telomerase [1]; MCF7, 10 μM, 48 Hours): 32.76%
Telomerase Activity RTA (%) (telomerase [1]; MCF7, 10 μM, 72 Hours): 16.26%
Telomerase Activity RTA (%) (telomerase [1]; MCF7, 20 μM, 24 Hours): 44.48%
Telomerase Activity RTA (%) (telomerase [1]; MCF7, 20 μM, 48 Hours): 44.82%
Telomerase Activity RTA (%) (telomerase [1]; MCF7, 20 μM, 72 Hours): 16.69%
Telomerase Activity RTA (%) (telomerase [1]; MCF7, 40 μM, 24 Hours): 53.63%
Telomerase Activity RTA (%) (telomerase [1]; MCF7, 40 μM, 48 Hours): 26.82%
Telomerase Activity RTA (%) (telomerase [1]; MCF7, 40 μM, 72 Hours): 10.17%
IC50 (telomerase [1]; MCF7, 24 h): > 40 µM
telomerase activity levels of treated groups compared to control (telomerase [1]; MCF7, 24 hours): lower telomerase activity levels compared to control
Significance of RTA difference vs. control (telomerase [1]; MCF7, 24 hours, 5 μM): YES (*)
Significance of RTA difference vs. control (telomerase [1]; MCF7, 24 hours, 10 μM): YES (*)
Significance of RTA difference vs. control (telomerase [1]; MCF7, 24 hours, 20 μM): YES (*)
Significance of RTA difference vs. control (telomerase [1]; MCF7, 24 hours, 40 μM): YES (*)
IC50 (telomerase [1]; MCF7, 48 h): 5.17 µM
telomerase activity levels of treated groups compared to control (telomerase [1]; MCF7, 48 hours): lower telomerase activity levels compared to control, even more pronounced than 24 hours
Significance of RTA difference vs. control (telomerase [1]; MCF7, 48 hours, 2.5 μM): YES (*)
Significance of RTA difference vs. control (telomerase [1]; MCF7, 48 hours, 10 μM): YES (*)
Significance of RTA difference vs. control (telomerase [1]; MCF7, 48 hours, 40 μM): YES (*)
IC50 (telomerase [1]; MCF7, 72 h): > 40 µM
telomerase activity levels of treated groups compared to control (telomerase [1]; MCF7, 72 hours): the group treated with the highest concentration presented lower RTA levels
Significance of RTA difference vs. control (telomerase [1]; MCF7, 72 hours, 2.5 μM): YES (*)
telomerase inhibition effect (telomerase [1]; MCF7 breast cancer cells): exhibit a telomerase inhibition effect
Telomerase Activity RTA (%) (telomerase [2]; PC3, 2.5 μM, 24 Hours): 48.73%
Telomerase Activity RTA (%) (telomerase [2]; PC3, 2.5 μM, 48 Hours): 126.77%
Telomerase Activity RTA (%) (telomerase [2]; PC3, 2.5 μM, 72 Hours): 13.05%
Telomerase Activity RTA (%) (telomerase [2]; PC3, 5 μM, 24 Hours): 36.48%
Telomerase Activity RTA (%) (telomerase [2]; PC3, 5 μM, 48 Hours): 112.17%
Telomerase Activity RTA (%) (telomerase [2]; PC3, 5 μM, 72 Hours): 11.67%
Telomerase Activity RTA (%) (telomerase [2]; PC3, 10 μM, 24 Hours): 23.87%
Telomerase Activity RTA (%) (telomerase [2]; PC3, 10 μM, 48 Hours): 102.96%
Telomerase Activity RTA (%) (telomerase [2]; PC3, 10 μM, 72 Hours): 12.58%
Telomerase Activity RTA (%) (telomerase [2]; PC3, 20 μM, 24 Hours): 31.05%
Telomerase Activity RTA (%) (telomerase [2]; PC3, 20 μM, 48 Hours): 154.17%
Telomerase Activity RTA (%) (telomerase [2]; PC3, 20 μM, 72 Hours): 7.53%
Telomerase Activity RTA (%) (telomerase [2]; PC3, 40 μM, 24 Hours): 14.44%
Telomerase Activity RTA (%) (telomerase [2]; PC3, 40 μM, 48 Hours): 128.83%
Telomerase Activity RTA (%) (telomerase [2]; PC3, 40 μM, 72 Hours): 13.49%
IC50 (telomerase [2]; PC3, 24 h): 2.99 µM
telomerase activity levels of treated groups compared to control (telomerase [2]; PC3, 24 hours): lower telomerase activity levels compared to control
Significance of RTA difference vs. control (telomerase [2]; PC3, 24 hours, 2.5 μM): Yes (*) (Yes (*): p < 0.05)
Significance of RTA difference vs. control (telomerase [2]; PC3, 24 hours, 5 μM): Yes (**) (Yes (**): p < 0.01)
Significance of RTA difference vs. control (telomerase [2]; PC3, 24 hours, 10 μM): Yes (**) (Yes (**): p < 0.01)
Significance of RTA difference vs. control (telomerase [2]; PC3, 24 hours, 20 μM): Yes (**) (Yes (**): p < 0.01)
Significance of RTA difference vs. control (telomerase [2]; PC3, 24 hours, 40 μM): Yes (***) (Yes (***): p < 0.001)
IC50 (telomerase [2]; PC3, 48 h): 15.4 µM
telomerase activity levels of treated groups compared to control (telomerase [2]; PC3, 48 hours): the differences were not found to be significant
Significance of RTA difference vs. control (telomerase [2]; PC3, 48 hours, 2.5 μM): No
Significance of RTA difference vs. control (telomerase [2]; PC3, 48 hours, 5 μM): No
Significance of RTA difference vs. control (telomerase [2]; PC3, 48 hours, 10 μM): No
Significance of RTA difference vs. control (telomerase [2]; PC3, 48 hours, 20 μM): No
Significance of RTA difference vs. control (telomerase [2]; PC3, 48 hours, 40 μM): No
IC50 (telomerase [2]; PC3, 72 h): 2.38 µM
telomerase activity levels of treated groups compared to control (telomerase [2]; PC3, 72 hours): without any particular differences between the treated and control groups
Significance of RTA difference vs. control (telomerase [2]; PC3, 72 hours, 2.5 μM): No
Significance of RTA difference vs. control (telomerase [2]; PC3, 72 hours, 5 μM): No
Significance of RTA difference vs. control (telomerase [2]; PC3, 72 hours, 10 μM): No
Significance of RTA difference vs. control (telomerase [2]; PC3, 72 hours, 20 μM): Yes (*) (Yes (*): p < 0.05)
Significance of RTA difference vs. control (telomerase [2]; PC3, 72 hours, 40 μM): No
telomerase inhibition effect (telomerase [2]; PC3 prostate cancer cell line): exhibits a telomerase inhibition effect at 24 hours
